Data: patent publication US7825103B2, “Pyrimidine nucleoside compound or its salt” (Taiho Pharmaceutical Co., Ltd., priority 2005, dated 2010)
Counter-ions that a name gives are not always drawn.

Columns and labels:
[1] = system: Human large intestine cancer cell strain KM20C; assay: Anti-tumor test using nude mouse subcutaneous implantation system, peroral administration in an equitoxic dose; format: in vivo, BALB/cA Jcl-nu mice; conditions: peroral once a day for 14 days, 6 animals per group, FIG. 1
Method: Human large intestine cancer cell strain KM20C was subcutaneously subcultured in BALB/cA Jcl-nu mice (CLEA Japan, Inc.), and the resultant cancer tissues were cut into 2 mm dice fragments. Each of the fragments was subcutaneously implanted to a 6-week-old BALB/cA Jcl-nu mouse at the back thereof. On day 15 after the implantation, large and small diameters of the resultant tumor were measured, and the volume of the tumor was calculated through use of the following equation. The mice were grouped (6 animals per group) so that the average tumor volume was common to each group. Vt=½(Vl)×(Vs)^2 (Equation 5) In the equation, Vt represents tumor volume, Vl represents large diameter of tumor, and Vs represents small diameter of tumor.
CNDAC, P-CNDAC, or Compound 19 was dissolved or suspended in 0.5% hydroxypropyl methyl cellulose solution which had been buffered with 100 mM citrate buffer (pH 5.0). From the next day of grouping, the mixture was perorally administered to each mouse once a day for consecutive 14 days in an equitoxic dose.
Large and small diameters of the subcutaneously implanted tumor of each mouse were measured twice a week, and relative tumor volume (RTV) was calculated as an index indicating tumor growth through use of the following equations to evaluate anti-tumor effect of the compound. RTV=Vt1/Vt2 (Equation 6) In the equation, RTV represents ratio of tumor volume, Vt1 represents tumor volume measured on the day of determination, and Vt2 represents tumor volume measured on the day of grouping.

[2] = system: Human large intestine cancer cell strain KM20C; assay: Anti-tumor test using nude mouse subcutaneous implantation system with peroral administration of CNDAC compound; format: in vivo, BALB/cA Jcl-nu mice; conditions: peroral once a day for 14 days, dose equivalent by mole to 18 mg/kg/day of CNDAC, day 29 after grouping, KM20C subcutaneous implant
Method: Human large intestine cancer cell strain KM20C was subcutaneously subcultured in BALB/cA Jcl-nu mice (CLEA Japan, Inc.), and the resultant cancer tissues were cut into 2 mm dice fragments. Each of the fragments was subcutaneously implanted to a 6-week-old BALB/cA Jcl-nu mouse at the back thereof. On day 14 after the implantation, large and small diameters of the resultant tumor were measured, and the volume of the tumor was calculated by the following equation. The mice were grouped (6 animals per group) so that the groups were roughly equal in terms of average tumor volume. Vt=½(Vl)×(Vs)^2 (Equation 1) In the equation, Vt represents tumor volume, Vl represents large diameter of tumor, and Vs represents small diameter of tumor.
Each CNDAC compound was dissolved or suspended in 0.5% hydroxypropyl methyl cellulose solution which had been buffered with 100 mM citrate buffer (pH 6.0). From the next day after grouping, the mixture was perorally administered to each mouse once a day for consecutive 14 days in a dose which is equivalent, by mole, to 18 mg/kg/day of CNDAC.
On day 29 after the grouping, large and small diameters of the subcutaneously implanted tumor of each mouse were measured, and relative tumor volume (RTV) and inhibition rate (IR) were calculated by the following equations to evaluate anti-tumor effect of the compound. RTV=Vt1/Vt2 (Equation 2) In the equation, RTV represents ratio of tumor volume, Vt1 represents tumor volume measured on the day of determination, and […]. IR(%)=[1−(RTVtest)/(RTVcont)]×100 (Equation 3) In the equation, IR represents tumor growth inhibition rate, RTVtest represents mean RTV value of a drug-administered group, and RTVcont represents mean RTV value of a non-treatment group.

[3] = Mus musculus, sc, 696 h, read-out: IR (%) tumor growth inhibition rate

SMILES	melting point	inhibition in vivo [2, 3] [%]	also measured
C[Si](C)(OC[C@H]1O[C@@H](n2ccc(N)nc2=O)[C@@H](C#N)[C@@H]1O)c1ccccc1	139 to 140 °C	–	–
CC(C)C(C)(C)[Si](C)(C)OC[C@H]1O[C@@H](n2ccc(N)nc2=O)[C@H](C#N)[C@@H]1O	187 to 187.5 °C	–	–
CC(C)C(C)(C)[Si](C)(C)O[C@H]1[C@H](C#N)[C@H](n2ccc(N)nc2=O)O[C@@H]1CO.CS(=O)(=O)O	203 to 204 °C	–	–
CC(C)C[Si](CC(C)C)(CC(C)C)O[C@H]1[C@H](C#N)[C@H](n2ccc(N)nc2=O)O[C@@H]1CO	101 to 102 °C	–	–
CC(C)C(C)(C)[Si](C)(C)O[C@H]1[C@@H](C#N)[C@H](n2ccc(N)nc2=O)O[C@@H]1CO	179 to 182 °C	–	–
C[Si](C)(OC[C@H]1O[C@@H](n2ccc(N)nc2=O)[C@@H](C#N)[C@@H]1O)C1CCCCC1	152 to 153 °C	–	–
CC(C)(C)[Si](OC[C@H]1O[C@@H](n2ccc(N)nc2=O)[C@@H](C#N)[C@@H]1O)(c1ccccc1)c1ccccc1	187 °C	–	–
N#C[C@H]1[C@H](O)[C@@H](CO[Si](c2ccccc2)(c2ccccc2)c2ccccc2)O[C@H]1n1ccc(N)nc1=O	203 °C (dec.)	–	–
N#C[C@H]1[C@H](O)[C@@H](CO[Si](Cc2ccccc2)(Cc2ccccc2)Cc2ccccc2)O[C@H]1n1ccc(N)nc1=O	188 °C (dec.)	–	–
CC(C)C(C)(C)[Si](C)(C)O[C@H]1[C@H](C#N)[C@H](n2ccc(N)nc2=O)O[C@@H]1CO (as salt: hydrochloride) [Example 26, 3′-O-Dimethylthexylsilyl-2′-cyano-2′-deoxy-1-β-D-arabinofuranosylcytosine hydrochloride]	206 °C (dec.)	–	–
CC(C)[C@H](N)C(=O)OC[C@H]1O[C@@H](n2ccc(N)nc2=O)[C@@H](C#N)[C@@H]1O[Si](C)(C)C(C)(C)C(C)C (as salt: trifluoroacetate) [Example 31, 3′-O-Dimethylthexylsilyl-5′-O-(L-valyl)-2′-cyano-2′-deoxy-1-β-D-arabinofuranosylcytosine bis(trifluoroacetate)]	118 to 120 °C	–	–
CC(C)[C@H](N)C(=O)OC[C@H]1O[C@@H](n2ccc(N)nc2=O)[C@@H](C#N)[C@@H]1O[Si](C)(C)C(C)(C)C (as salt: trifluoroacetate) [Example 32, 5′-O-(L-Valyl)-3′-O-(tert-butyldimethylsilyl)-2′-cyano-2′-deoxy-1-β-D-arabinofuranosylcytosine bis(trifluoroacetate)]	118 to 120 °C	–	–
N#C[C@H]1[C@H](O)[C@@H](CO)O[C@H]1n1ccc(N)nc1=O [CNDAC, 2′-cyano-2′-deoxy-1-β-D-arabinofuranosylcytosine, reference compound]	–	–	deletion of tumor [1]: no deletion of tumor; inhibition in vivo at 18 mg/kg/day [2, 3]: 46%
CC(C)(C)[Si](C)(C)OC[C@H]1O[C@@H](n2ccc(N)nc2=O)[C@@H](C#N)[C@@H]1O [Example 1, 5′-O-(tert-Butyldimethylsilyl)-2′-cyano-2′-deoxy-1-β-D-arabinofuranosylcytosine]	185 °C (dec.)	75	–
CC(C)[Si](OC[C@H]1O[C@@H](n2ccc(N)nc2=O)[C@@H](C#N)[C@@H]1O)(C(C)C)C(C)C [Example 2, 5′-O-Triisopropylsilyl-2′-cyano-2′-deoxy-1-β-D-arabinofuranosylcytosine]	177 °C (dec.)	65	–
CC[Si](CC)(OC[C@H]1O[C@@H](n2ccc(N)nc2=O)[C@@H](C#N)[C@@H]1O)C(C)C [Example 3, 5′-O-Diethylisopropylsilyl-2′-cyano-2′-deoxy-1-β-D-arabinofuranosylcytosine]	–	–	IR (%) tumor growth inhibition rate [2]: 82%
CC(C)C(C)(C)[Si](C)(C)OC[C@H]1O[C@@H](n2ccc(N)nc2=O)[C@@H](C#N)[C@@H]1O [Example 6, 5′-O-Dimethylthexylsilyl-2′-cyano-2′-deoxy-1-β-D-arabinofuranosylcytosine]	188 °C (dec.)	82	–
CC(C)C[Si](CC(C)C)(CC(C)C)OC[C@H]1O[C@@H](n2ccc(N)nc2=O)[C@@H](C#N)[C@@H]1O [Example 7, 5′-O-Triisobutylsilyl-2′-cyano-2′-deoxy-1-β-D-arabinofuranosylcytosine]	152 °C	79	–
CCCCCCCC[Si](C)(C)OC[C@H]1O[C@@H](n2ccc(N)nc2=O)[C@@H](C#N)[C@@H]1O [Example 10, 5′-O-(Dimethyl-n-octylsilyl)-2′-cyano-2′-deoxy-1-β-D-arabinofuranosylcytosine]	142 °C	68	–
CC(C)(C)[Si]1(C(C)(C)C)OC[C@H]2O[C@@H](n3ccc(N)nc3=O)[C@@H](C#N)[C@@H]2O1 [Example 18, 3′,5′-O-(Di-tert-butylsilanediyl)-2′-cyano-2′-deoxy-1-β-D-arabinofuranosylcytosine]	139 to 140 °C	69	–
CC[Si](CC)(O[C@H]1[C@H](C#N)[C@H](n2ccc(N)nc2=O)O[C@@H]1CO)C(C)C [Example 21, 3′-O-Diethylisopropylsilyl-2′-cyano-2′-deoxy-1-β-D-arabinofuranosylcytosine]	161 to 163 °C	85	–
CCCCCCCC[Si](C)(C)O[C@H]1[C@H](C#N)[C@H](n2ccc(N)nc2=O)O[C@@H]1CO [Example 23, 3′-O-(Dimethyl-n-octylsilyl)-2′-cyano-2′-deoxy-1-β-D-arabinofuranosylcytosine]	153 to 154 °C	–	–
CC(C)(C)[Si](C)(C)O[C@H]1[C@H](C#N)[C@H](n2ccc(N)nc2=O)O[C@@H]1CO.O=C(O)C(F)(F)F [Example 24, 3′-O-(tert-Butyldimethylsilyl)-2′-cyano-2′-deoxy-1-β-D-arabinofuranosylcytosine trifluoroacetate]	163 to 165 °C	83	–
CC(C)C(C)(C)[Si](C)(C)O[C@H]1[C@H](C#N)[C@H](n2ccc(N)nc2=O)O[C@@H]1CO.O=C(O)C(F)(F)F [Example 25, 3′-O-Dimethylthexylsilyl-2′-cyano-2′-deoxy-1-β-D-arabinofuranosylcytosine trifluoroacetate]	151 to 154 °C	–	–
CC(C)[Si](O[C@H]1[C@H](C#N)[C@H](n2ccc(N)nc2=O)O[C@@H]1CO)(C(C)C)C(C)C [Example 27, 3′-O-Triisopropylsilyl-2′-cyano-2′-deoxy-1-β-D-arabinofuranosylcytosine]	162 to 163 °C	85	–
CC(C)[C@H](N)C(=O)OC[C@H]1O[C@@H](n2ccc(N)nc2=O)[C@@H](C#N)[C@@H]1O[Si](C)(C)C(C)(C)C(C)C [Example 31, 3′-O-Dimethylthexylsilyl-5′-O-(L-valyl)-2′-cyano-2′-deoxy-1-β-D-arabinofuranosylcytosine bis(trifluoroacetate)]	–	89	–
CC(C)[C@H](N)C(=O)OC[C@H]1O[C@@H](n2ccc(N)nc2=O)[C@@H](C#N)[C@@H]1O[Si](C)(C)C(C)(C)C [Example 32, 5′-O-(L-Valyl)-3′-O-(tert-butyldimethylsilyl)-2′-cyano-2′-deoxy-1-β-D-arabinofuranosylcytosine bis(trifluoroacetate)]	–	85	–
CCCCCCCCCCCCCCCC(=O)Nc1ccn([C@@H]2O[C@H](CO)[C@@H](O)[C@@H]2C#N)c(=O)n1 [P-CNDAC, 4-N-palmitoyl-2′-cyano-2′-deoxy-1-β-D-arabinofuranosylcytosine, reference compound]	–	–	deletion of tumor [1]: no deletion of tumor
